# Results reported in ChEMBL document CHEMBL3885861, “Open TG-GATES”.
# Species: Rattus norvegicus
# Assay: Open TG-GATES - Regimen: Single
# Format: toxicity, organism-based, Sprague-Dawley
# Set-up: regimen Single, gender Male, age 6 weeks
# Details: in vivo, po, route gavage; for gamma-GTP / ALP / ALT / AST / BUN / CRE / Ca / Cl / DBIL / GLC / IP / K / LDH / Na / PL / RALB / TBIL / TG / TP: tissue Plasma; for APTT / Bas / Eos / Fbg / Hb / Ht / Lym / MCH / MCV / Mono / Neu / PT / Plat / RBC / Ret / WBC: tissue Blood; for KIDNEY_L / KIDNEY_R / KIDNEY_TOTAL: tissue Kidney; for LIVER: tissue Liver
structure (smiles),measurement,setting,value
NC(=O)N1c2ccccc2C=Cc2ccccc21 [CARBAMAZEPINE],gamma-GTP,"0 mg/kg, 24 h, dose level Control",0.8 IU/L
same,TERMINAL_BW,"30 mg/kg, 3 h, dose level Low",214.2 g
same,APTT,"30 mg/kg, 3 h, dose level Low",19.1 s
same,Bas,"30 mg/kg, 3 h, dose level Low",0%
same,Eos,"30 mg/kg, 3 h, dose level Low",1%
same,Fbg,"30 mg/kg, 3 h, dose level Low",212.2 mg/dL
same,Hb,"30 mg/kg, 3 h, dose level Low",13.3 g/dL
same,Ht,"30 mg/kg, 3 h, dose level Low",39.3%
same,Lym,"30 mg/kg, 3 h, dose level Low",78.2%
same,MCH,"30 mg/kg, 3 h, dose level Low",21.1 pg
same,MCV,"30 mg/kg, 3 h, dose level Low",62.4 fL
same,Mono,"30 mg/kg, 3 h, dose level Low",2.4%
same,Neu,"30 mg/kg, 3 h, dose level Low",17.8%
same,PT,"30 mg/kg, 3 h, dose level Low",12.2 s
same,Plat,"30 mg/kg, 3 h, dose level Low",121.8 x10_4/uL
same,RBC,"30 mg/kg, 3 h, dose level Low",631.2 x10_4/ul
same,Ret,"30 mg/kg, 3 h, dose level Low",6.3%
same,WBC,"30 mg/kg, 3 h, dose level Low",97.3 x10_2/uL
same,KIDNEY_L,"30 mg/kg, 3 h, dose level Low",0.9 g
same,KIDNEY_R,"30 mg/kg, 3 h, dose level Low",0.9 g
same,KIDNEY_TOTAL,"30 mg/kg, 3 h, dose level Low",1.9 g
same,LIVER,"30 mg/kg, 3 h, dose level Low",9.8 g
same,ALP,"30 mg/kg, 3 h, dose level Low",896 IU/L
same,ALT,"30 mg/kg, 3 h, dose level Low",34.8 IU/L
same,AST,"30 mg/kg, 3 h, dose level Low",66.6 IU/L
same,BUN,"30 mg/kg, 3 h, dose level Low",12.6 mg/dL
same,CRE,"30 mg/kg, 3 h, dose level Low",0.4 mg/dL
same,Ca,"30 mg/kg, 3 h, dose level Low",10.6 mg/dL
same,Cl,"30 mg/kg, 3 h, dose level Low",103.6 meq/L
same,DBIL,"30 mg/kg, 3 h, dose level Low",0.072 mg/dL
same,GLC,"30 mg/kg, 3 h, dose level Low",187.8 mg/dL
same,IP,"30 mg/kg, 3 h, dose level Low",10.1 mg/dL
same,K,"30 mg/kg, 3 h, dose level Low",3.9 meq/L
same,LDH,"30 mg/kg, 3 h, dose level Low",177 IU/L
same,Na,"30 mg/kg, 3 h, dose level Low",142.4 meq/L
same,PL,"30 mg/kg, 3 h, dose level Low",143.8 mg/dL
same,RALB,"30 mg/kg, 3 h, dose level Low",3.3 g/dL
same,TBIL,"30 mg/kg, 3 h, dose level Low",0.1 mg/dL
same,TG,"30 mg/kg, 3 h, dose level Low",51.8 mg/dL
same,TP,"30 mg/kg, 3 h, dose level Low",5.5 g/dL
same,gamma-GTP,"30 mg/kg, 3 h, dose level Low",0.6 IU/L
same,TERMINAL_BW,"30 mg/kg, 6 h, dose level Low",211.1 g
same,APTT,"30 mg/kg, 6 h, dose level Low",21.9 s
same,Bas,"30 mg/kg, 6 h, dose level Low",0%
same,Eos,"30 mg/kg, 6 h, dose level Low",1%
same,Fbg,"30 mg/kg, 6 h, dose level Low",203.8 mg/dL
same,Hb,"30 mg/kg, 6 h, dose level Low",13.3 g/dL
same,Ht,"30 mg/kg, 6 h, dose level Low",38.6%
same,Lym,"30 mg/kg, 6 h, dose level Low",80.6%
same,MCH,"30 mg/kg, 6 h, dose level Low",20.9 pg
same,MCV,"30 mg/kg, 6 h, dose level Low",60.9 fL
same,Mono,"30 mg/kg, 6 h, dose level Low",2.6%
same,Neu,"30 mg/kg, 6 h, dose level Low",14.8%
same,PT,"30 mg/kg, 6 h, dose level Low",12.9 s
same,Plat,"30 mg/kg, 6 h, dose level Low",126.6 x10_4/uL
same,RBC,"30 mg/kg, 6 h, dose level Low",634.2 x10_4/ul
same,Ret,"30 mg/kg, 6 h, dose level Low",6.1%
same,WBC,"30 mg/kg, 6 h, dose level Low",83.2 x10_2/uL
same,KIDNEY_L,"30 mg/kg, 6 h, dose level Low",1 g
same,KIDNEY_R,"30 mg/kg, 6 h, dose level Low",1 g
same,KIDNEY_TOTAL,"30 mg/kg, 6 h, dose level Low",1.9 g
same,LIVER,"30 mg/kg, 6 h, dose level Low",9.2 g
same,ALP,"30 mg/kg, 6 h, dose level Low",896 IU/L
same,ALT,"30 mg/kg, 6 h, dose level Low",34.4 IU/L
same,AST,"30 mg/kg, 6 h, dose level Low",66 IU/L
same,BUN,"30 mg/kg, 6 h, dose level Low",9.6 mg/dL
same,CRE,"30 mg/kg, 6 h, dose level Low",0.4 mg/dL
same,Ca,"30 mg/kg, 6 h, dose level Low",10.4 mg/dL
same,Cl,"30 mg/kg, 6 h, dose level Low",103.2 meq/L
same,DBIL,"30 mg/kg, 6 h, dose level Low",0.078 mg/dL
same,GLC,"30 mg/kg, 6 h, dose level Low",197.6 mg/dL
same,IP,"30 mg/kg, 6 h, dose level Low",9.6 mg/dL
same,K,"30 mg/kg, 6 h, dose level Low",4 meq/L
same,LDH,"30 mg/kg, 6 h, dose level Low",194 IU/L
same,Na,"30 mg/kg, 6 h, dose level Low",140.6 meq/L
same,PL,"30 mg/kg, 6 h, dose level Low",130.6 mg/dL
same,RALB,"30 mg/kg, 6 h, dose level Low",3.3 g/dL
same,TBIL,"30 mg/kg, 6 h, dose level Low",0.1 mg/dL
same,TG,"30 mg/kg, 6 h, dose level Low",61.6 mg/dL
same,TP,"30 mg/kg, 6 h, dose level Low",5.5 g/dL
